Source: patent publication US11384078B2, “5,6-fused-bicyclic compounds and compositions for the treatment of parasitic diseases” (NOVARTIS AG, priority 2017, dated 2022)

Assays:
Type in all cases: cell-based
[1] = system: Leishmania donovani axenic amastigote; experiment: In vitro assay for growth inhibition of Leishmania donovani axenic amastigote (Cell TiterGlo luminescence); details: Leishmania donovani, L. donovani axenic amastigotes in vitro; read-out: L. donovani amastigotes EC50
Method in brief: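 Axenic L. donovani amastigotes (9600/well) grown at 37 °C, 5% CO2 in supplemented RPMI 1640, pH 5.5, with compound added from DMSO. After two days, viability read by CellTiter-Glo luminescence against DMSO and control-compound wells.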

[2] = system: L. donovani HU3 strain in mouse peritoneal macrophages; experiment: Assay for inhibition of parasitemia of Leishmania donovani in mouse macrophages (SYBR Green nuclei count, high-content imaging); details: Leishmania donovani, Peritoneal macrophage, L. donovani in mouse peritoneal macrophages; read-out: L. donovani in Mouse Macrophages EC50
Source text: Assay for Inhibition of Parasitemia of Leishmania donovani in Mouse Macrophages
The assay measures the increase in the parasite number in the assayed plate well using a DNA intercalating dye, SYBR Green I® dye (INVITROGEN) to stain Leishmania cell nuclei. L. donovani HU3 strain is propagated by infecting BALB/c mice through tail vein injection with 10^7 Leishmania parasites. Infected mice are allowed to develop infection during 9-11 weeks post-infection. During this time, the parasites accumulate in the infected mouse spleens to large numbers, and the infected mice serve as the source of parasites for the in vitro measurement of compound efficacies. To assay a compound for anti-leishmanial activity, peritoneal macrophages isolated from non-infected BALB/c mice are seeded into 384-well plates at density 2×10^4 macrophages per well in […] of medium (RPM11640, 10% fetal serum albumin, 10 mM HEPES, 1 mM sodium pyruvate, 1% Pen/Strep). Subsequently, the seeded plates are placed into an incubator set to maintain 37° C. temperature and atmosphere with 5% CO2.
The next day, Leishmania parasites are isolated from the spleens of mice infected for 9-11 weeks and 4×10^5 isolated parasites in […] of the above media are added to each plate well. Plates are then returned into incubators and infection is allowed to proceed for 24 hours. After the infection of macrophages is completed, […] of compounds of the invention in the above medium, which also contains 5% DMSO, are added to plate wells containing infected macrophages. At the same time control compounds (miltefosine and amphotericin B) and DMSO are added to plates to serve as the positive and negative controls, respectively. After the compound addition, the plates are returned into incubator and cells infected with parasites are cultured for 5 days. At the end of cultivation, […] of 8% paraformaldehyde is added to plate wells and incubated for 15 min at room temperature. Following the incubation, the paraformaldehyde from plate wells is aspirated, and […] of PBS containing 0.2% Triton X-100 is added to wells. After 15 min incubation, the solution is aspirated from wells again, and replaced with Sybr® Green Dye solution in PBS (1:125,000 dilution). Infected cells are imaged with Evotec Opera high-content microscope, and the number of parasites in well is determined by counting parasite nuclei visualized by staining with Sybr® Green dye.

[3] = system: Trypanosoma cruzi amastigotes cultured in 3T3 fibroblast cells; experiment: Assay for growth inhibition of kinetoplastid parasite Trypanosoma cruzi (beta-galactosidase Tulahuen strain, CPRG readout); details: Trypanosoma cruzi, Fibroblast, T. cruzi amastigotes in 3T3 fibroblast cells; read-out: Buckner infectious T. cruzi EC50
Method in brief: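 3T3 fibroblasts (1,000 cells/well) plated overnight, treated with compound in DMSO, then infected with 10,000 Lac-Z-expressing Tulahuen trypomastigotes. After 6 days, 0.6 mM CPRG with 0.6% NP-40 added for 2 h at room temperature; absorbance gives relative intracellular amastigote numbers. Benznidazole and nifurtimox serve as positive controls.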

[4] = system: Trypanosoma brucei brucei (Lister 427) strain; experiment: Assay for growth inhibition against Trypanosoma brucei brucei (Cell TiterGlo ATP luminescence); details: Trypanosoma brucei, T. brucei brucei (Lister 427); read-out: T. Brucei (HAT) EC50
Method in brief: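 T. b. brucei Lister 427 grown in HMI-9 with 10% FBS and 10% serum plus, seeded at 10,000 parasites/mL with 10-point threefold compound dilutions in duplicate, 37 °C for 2 days. Viability read as ATP luminescence 30 min after Cell TiterGlo; IC50 versus untreated controls.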

Row | SMILES | EC50 [1] [nM] | EC50 [2] [nM] | EC50 [3] [nM] | EC50 [4] [nM]
1 | CCC(C)(C)c1cnc2nn(-c3cc(NC(=O)N4CC(F)(F)C4)ccc3F)cc2c1 [Compound 35, 3,3-difluoro-N-{4-fluoro-3-[5-(2-methylbutan-2-yl)-2H-pyrazolo[3,4-b]pyridin-2-yl]phenyl}azetidine-1-carboxamide] | 580 | 520 | 380 | 850
2 | CC(C)CCc1cnc2nn(-c3cc(NC(=O)N4CC(F)(F)C4)ccc3F)cc2c1 [Compound 38, 3,3-difluoro-N-{4-fluoro-3-[5-(3-methylbutyl)-2H-pyrazolo[3,4-b]pyridin-2-yl]phenyl}azetidine-1-carboxamide] | 31 | 33 | 62 | 24
3 | O=C(Nc1ccc(F)c(-n2cc3cc(-c4ccccn4)cnc3n2)c1)N1CC(F)(F)C1 [Compound 39, 3,3-difluoro-N-(4-fluoro-3-(5-(pyridin-2-yl)-2H-pyrazolo[3,4-b]pyridin-2-yl)phenyl)azetidine-1-carboxamide] | 2.4 | 3.8 | 2 | < 23
4 | O=C(Nc1ccc(F)c(-n2cc3cc(C4CC4)cnc3n2)c1)N1CC[C@@H](F)C1 [Compound 42, (3R)-N-(3-{5-cyclopropyl-2H-pyrazolo[3,4-b]pyridin-2-yl}-4-fluorophenyl)-3-fluoropyrrolidine-1-carboxamide] | 3 | 6 | 1.8 | < 23
5 | CC(C)(C)Cc1cnc2nn(-c3cc(NC(=O)N4CC[C@@H](F)C4)ccc3F)cc2c1 [Compound 46, (3R)-N-{3-[5-(2,2-dimethylpropyl)-2H-pyrazolo[3,4-b]pyridin-2-yl]-4-fluorophenyl}-3-fluoropyrrolidine-1-carboxamide] | 8.4 | 3.5 | 1.7 | < 23
6 | CCCC(C)c1cnc2nn(-c3cc(NC(=O)N4CC[C@@H](F)C4)ccc3F)cc2c1 (stereo partly drawn) [Compound 48, (3R)-3-fluoro-N-{4-fluoro-3-[5-(pentan-2-yl)-2H-pyrazolo[3,4-b]pyridin-2-yl]phenyl}pyrrolidine-1-carboxamide] | 350 | 330 | 290 | 50
7 | CCC(C)(C)c1cnc2nn(-c3cc(NC(=O)N4CC[C@@H](F)C4)ccc3F)cc2c1 [Compound 49, (3R)-3-fluoro-N-{4-fluoro-3-[5-(2-methylbutan-2-yl)-2H-pyrazolo[3,4-b]pyridin-2-yl]phenyl}pyrrolidine-1-carboxamide] | 25000 | 12000 | 12000 | 3400
8 | CCC(C)c1cnc2nn(-c3cc(NC(=O)N4CC[C@@H](F)C4)ccc3F)cc2c1 (stereo partly drawn) [Compound 50, (3R)-N-{3-[5-(butan-2-yl)-2H-pyrazolo[3,4-b]pyridin-2-yl]-4-fluorophenyl}-3-fluoropyrrolidine-1-carboxamide] | 78 | 100 | 79 | < 23
9 | CC(C)CCc1cnc2nn(-c3cc(NC(=O)N4CC[C@@H](F)C4)ccc3F)cc2c1 [Compound 52, (3R)-3-fluoro-N-{4-fluoro-3-[5-(3-methylbutyl)-2H-pyrazolo[3,4-b]pyridin-2-yl]phenyl}pyrrolidine-1-carboxamide] | 19 | 11 | 13 | < 23
10 | O=C(Nc1ccc(F)c(-n2cc3cc(-c4ccccn4)cnc3n2)c1)N1CC[C@@H](F)C1 [Compound 53, (3R)-3-fluoro-N-{4-fluoro-3-[5-(pyridin-2-yl)-2H-pyrazolo[3,4-b]pyridin-2-yl]phenyl}pyrrolidine-1-carboxamide] | 1.3 | 2 | 1 | < 23
11 | CC(C)(C)Cc1cnc2nn(-c3cc(NC(=O)c4ccco4)ccc3F)cc2c1 [Compound 59, N-{3-[5-(2,2-dimethylpropyl)-2H-pyrazolo[3,4-b]pyridin-2-yl]-4-fluorophenyl}furan-2-carboxamide] | 68 | 21 | 4.7 | < 23
12 | CCC(C)(C)c1cnc2nn(-c3cc(NC(=O)c4ccco4)ccc3F)cc2c1 [Compound 60, N-{4-fluoro-3-[5-(2-methylbutan-2-yl)-2H-pyrazolo[3,4-b]pyridin-2-yl]phenyl}furan-2-carboxamide] | 2000 | 2400 | 440 | 1300
13 | O=C(Nc1ccc(F)c(-n2cc3cc(-c4ccccn4)cnc3n2)c1)c1ccco1 [Compound 64, N-{4-fluoro-3-[5-(pyridin-2-yl)-2H-pyrazolo[3,4-b]pyridin-2-yl]phenyl}furan-2-carboxamide] | 2.2 | 3.9 | 1 | < 23
14 | Cc1cnc(C(=O)Nc2ccc(F)c(-n3cc4cc(C(C)C)cnc4n3)c2)cn1 [Compound 65, N-{4-fluoro-3-[5-(propan-2-yl)-2H-pyrazolo[3,4-b]pyridin-2-yl]phenyl}-5-methylpyrazine-2-carboxamide] | 1000 | 1200 | 960 | 1400
15 | CC1CCC(C(=O)Nc2ccc(F)c(-n3cc4cc(C(C)C)cnc4n3)c2)C1 (stereo not drawn) [Compound 66, N-{4-fluoro-3-[5-(propan-2-yl)-2H-pyrazolo[3,4-b]pyridin-2-yl]phenyl}-3-methylcyclopentane-1-carboxamide] | 740 | 870 | 150 | 120
16 | CC(C)c1cnc2nn(-c3cc(NC(=O)c4ccc(F)cn4)ccc3F)cc2c1 [Compound 67, 5-fluoro-N-{4-fluoro-3-[5-(propan-2-yl)-2H-pyrazolo[3,4-b]pyridin-2-yl]phenyl}pyridine-2-carboxamide] | 210 | 310 | 42 | > 50000
17 | Cc1nc(C(=O)Nc2ccc(F)c(-n3cc4cc(C(C)C)cnc4n3)c2)c(C(F)(F)F)o1 [Compound 68, N-{4-fluoro-3-[5-(propan-2-yl)-2H-pyrazolo[3,4-b]pyridin-2-yl]phenyl}-2-methyl-5-(trifluoromethyl)-1,3-oxazole-4-carboxamide] | 2200 | 2800 | 160 | 510
18 | CC(C)c1cnc2nn(-c3cc(NC(=O)CC4CC4)ccc3F)cc2c1 [Compound 69, 2-cyclopropyl-N-{4-fluoro-3-[5-(propan-2-yl)-2H-pyrazolo[3,4-b]pyridin-2-yl]phenyl}acetamide] | 170 | 150 | 68 | 40
19 | CC(C)c1cnc2nn(-c3cc(NC(=O)c4ncc(F)cc4F)ccc3F)cc2c1 [Compound 70, 3,5-difluoro-N-{4-fluoro-3-[5-(propan-2-yl)-2H-pyrazolo[3,4-b]pyridin-2-yl]phenyl}pyridine-2-carboxamide] | 140 | 100 | 22 | 38
20 | CC(C)c1cnc2nn(-c3cc(NC(=O)C4CCC(C(F)(F)F)C4)ccc3F)cc2c1 (stereo not drawn) [Compound 71, N-{4-fluoro-3-[5-(propan-2-yl)-2H-pyrazolo[3,4-b]pyridin-2-yl]phenyl}-3-(trifluoromethyl)cyclopentane-1-carboxamide] | 4800 | 2800 | 1400 | 3000
21 | Cc1cc(C(=O)Nc2ccc(F)c(-n3cc4cc(C(C)C)cnc4n3)c2)c(C)o1 [Compound 72, N-{4-fluoro-3-[5-(propan-2-yl)-2H-pyrazolo[3,4-b]pyridin-2-yl]phenyl}-2,5-dimethylfuran-3-carboxamide] | 2100 | 1400 | 180 | 420
